Among the data in patent US9914730B2, “Azaquinazoline inhibitors of Atypical protein Kinase C” (Ignyta, Inc., priority 2012, dated 2018) are IC50 values, retold here.

The experiment deals with T1, full-length human PKCι (Homo sapiens, UniProt P41743).
T1 construct: Recombinant, full-length human PKCι expressed in Sf21 insect cells is also commercially available; purchased; host or cells: Sf21 insect cells
T1 sequence (P41743 1-596): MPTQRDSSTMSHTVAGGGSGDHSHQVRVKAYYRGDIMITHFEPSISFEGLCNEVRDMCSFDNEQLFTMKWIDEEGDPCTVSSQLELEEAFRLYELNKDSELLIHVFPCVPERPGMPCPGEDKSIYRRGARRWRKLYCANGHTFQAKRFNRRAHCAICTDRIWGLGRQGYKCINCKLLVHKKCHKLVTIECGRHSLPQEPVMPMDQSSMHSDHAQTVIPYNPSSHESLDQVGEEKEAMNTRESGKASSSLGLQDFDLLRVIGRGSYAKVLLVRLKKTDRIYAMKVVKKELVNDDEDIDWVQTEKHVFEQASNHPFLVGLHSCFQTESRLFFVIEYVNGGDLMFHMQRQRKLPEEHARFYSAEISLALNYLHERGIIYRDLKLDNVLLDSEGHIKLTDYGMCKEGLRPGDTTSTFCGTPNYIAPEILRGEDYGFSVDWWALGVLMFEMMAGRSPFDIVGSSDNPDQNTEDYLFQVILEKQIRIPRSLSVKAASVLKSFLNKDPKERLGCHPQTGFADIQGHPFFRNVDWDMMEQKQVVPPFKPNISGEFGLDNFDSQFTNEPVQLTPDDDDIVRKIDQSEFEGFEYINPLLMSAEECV
Briefly: PKCι IC50 IMAP assay, full-length PKCι at 150 μM ATP. In kind it is biochemical. The following applies: read-out: IC50 in IMAP assay against full length PKCi at 150 μM ATP. A digest of the protocol: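 Phosphorylation of a 5FAM-tagged PKCε pseudopeptide-derived substrate (100 nM) by full-length recombinant human PKCι was monitored by IMAP fluorescence polarisation. ATP was held at 150 μM, five times its apparent KM, with 60 min room-temperature incubation.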
The IC50 is the concentration at which inhibition is half-maximal. For the compound `COc1cncc2nc(-c3ccnc(Nc4cccc(C#N)c4)c3)nc(N3CCNCC3)c12` [Example 205, 3-[4-(5-Methoxy-4-piperazin-1-yl-pyrido[3,4-d]pyrimidin-2-yl)-pyridin-2-ylamino]-benzonitrile], the IC50 is 100 to 1000 nM.

Take `COc1cncc2nc(-c3ccnc(Nc4ccccc4F)c3)nc(N3CCNCC3)c12` [Example 206, (2-Fluoro-phenyl)-[4-(5-methoxy-4-piperazin-1-yl-pyrido[3,4-d]pyrimidin-2-yl)-pyridin-2-yl]-amine]: the IC50 is less than 100 nM.

In the case of `COc1cncc2nc(-c3ccnc(Nc4ccc(C(F)(F)F)cc4)c3)nc(N3CCNCC3)c12` [Example 207, [4-(5-Methoxy-4-piperazin-1-yl-pyrido[3,4-d]pyrimidin-2-yl)-pyridin-2-yl]-(4-trifluoromethyl-phenyl)-amine], the IC50 was in the range of 100 to 1000 nM.

Regarding `COc1cncc2nc(-c3ccnc(N)c3)nc(N3CCNCC3)c12` [Example 208, 4-(5-Methoxy-4-piperazin-1-yl-pyrido[3,4-d]pyrimidin-2-yl)-pyridin-2-ylamine], the IC50 is less than 100 nM.

Regarding `COc1cncc2nc(-c3ccnc(NC(=O)CN4CCOCC4)c3)nc(N3CCNCC3)c12` [Example 209, N-[4-(5-Methoxy-4-piperazin-1-yl-pyrido[3,4-d]pyrimidin-2-yl)-pyridin-2-yl]-2-morpholin-4-yl-acetamide], the IC50 is 100 to 1000 nM.

`COc1cncc2nc(-c3ccnc(NC(=O)CN4CCCCC4)c3)nc(N3CCNCC3)c12` [Example 210, N-[4-(5-Methoxy-4-piperazin-1-yl-pyrido[3,4-d]pyrimidin-2-yl)-pyridin-2-yl]-2-piperidin-1-yl-acetamide]: the IC50 is 100 to 1000 nM.

`COc1cncc2nc(-c3ccnc(Nc4ccncn4)c3)nc(N3CCNCC3)c12` [Example 211, [4-(5-Methoxy-4-piperazin-1-yl-pyrido[3,4-d]pyrimidin-2-yl)-pyridin-2-yl]-pyrimidin-4-yl-amine]: the IC50 was less than 100 nM.

Regarding `COc1cncc2nc(-c3ccnc(NC(=O)c4ccccc4)c3)nc(N3CCNCC3)c12` [Example 212, N-[4-(5-Methoxy-4-piperazin-1-yl-pyrido[3,4-d]pyrimidin-2-yl)-pyridin-2-yl]-benzamide], the IC50 is less than 100 nM.

Regarding `CNc1cc(-c2nc(N3CCNCC3)c3c(OC)cncc3n2)ccn1` [Example 213, [4-(5-Methoxy-4-piperazin-1-yl-pyrido[3,4-d]pyrimidin-2-yl)-pyridin-2-yl]-methyl-amine], the IC50 fell in the range of 100 to 1000 nM.

On to `COc1cncc2nc(-c3ccnc(NC(C)=O)c3)nc(N3CCNCC3)c12` [Example 214, N-[4-(5-Methoxy-4-piperazin-1-yl-pyrido[3,4-d]pyrimidin-2-yl)-pyridin-2-yl]-acetamide], for which the half-inhibitory concentration (IC50) was less than 100 nM.

On to `COc1cncc2nc(-c3ccnc(NC(C)=O)c3)nc(N3CCC(O)CC3)c12` [Example 215, N-{4-[4-(4-Hydroxy-piperidin-1-yl)-5-methoxy-pyrido[3,4-d]pyrimidin-2-yl]-pyridin-2-yl}-acetamide], for which the IC50 was in the range of 100 to 1000 nM.

As to `COc1cncc2nc(-c3ccnc(NC(=O)C4CC4)c3)nc(N3CCNCC3)c12` [Example 216, Cyclo-propane-carboxylic acid[4-(5-methoxy-4-piperazin-1-yl-pyrido[3,4-d]pyrimidin-2-yl)-pyridin-2-yl]-amide], the IC50 is less than 100 nM.

Take `COc1cncc2nc(-c3ccnc(NC(=O)C(C)(C)C)c3)nc(N3CCNCC3)c12` [Example 217, N-[4-(5-Methoxy-4-piperazin-1-yl-pyrido[3,4-d]pyrimidin-2-yl)-pyridin-2-yl]-2,2-dimethyl-propionamide]: the IC50 lay within 100 to 1000 nM.

For the compound `COc1cncc2nc(-c3ccnc(NC(=O)C4CCOCC4)c3)nc(N3CCNCC3)c12` [Example 218, Tetrahydro-pyran-4-carboxylic acid[4-(5-methoxy-4-piperazin-1-yl-pyrido[3,4 d]pyrimidin-2-yl)-pyridin-2-yl]-amide], the IC50 was less than 100 nM.

With `COc1cncc2nc(-c3ccnc(Nc4nccs4)c3)nc(N3CCNCC3)c12` [Example 219, [4-(5-Methoxy-4-piperazin-1-yl-pyrido[3,4-d]pyrimidin-2-yl)-pyridin-2-yl]-thiazol-2-yl-amine], the IC50 lay in the range of 100 to 1000 nM.

In the case of `COc1cncc2nc(-c3ccnc(Nc4ncco4)c3)nc(N3CCNCC3)c12` [Example 220, [4-(5-Methoxy-4-piperazin-1-yl-pyrido[3,4-d]pyrimidin-2-yl)-pyridin-2-yl]-oxazol-2-yl-amine], the half-inhibitory concentration (IC50) was less than 100 nM.

With `COc1cncc2nc(-c3ccnc(Nc4nc(C)co4)c3)nc(N3CCNCC3)c12` [Example 221, [4-(5-Methoxy-4-piperazin-1-yl-pyrido[3,4-d]pyrimidin-2-yl)-pyridin-2-yl]-(4-methyl-oxazol-2-yl)-amine], the IC50 is less than 100 nM.

For `COc1cncc2nc(-c3ccnc(Nc4ccccc4)c3)nc(N3CCN[C@H](CO)C3)c12` [Example 222, {(S)-4-[5-Methoxy-2-(2-phenylamino-pyridin-4-yl)-pyrido[3,4-d]pyrimidin-4-yl]-piperazin-2-yl}-methanol], the IC50 is less than 100 nM.

As for `COc1cncc2nc(-c3ccnc(Nc4ccccc4)c3)nc(N3CCC(C)(O)CC3)c12` [Example 223, 1-[5-Mcthoxy-2-(2-phenylamino-pyridin-4-yl)-pyrido[3,4-d]pyrimidin-4-yl]-4-methyl-piperidin-4-ol], the IC50 lay in the range of 1000 to 10000 nM.

As for `COc1cncc2nc(-c3ccnc(Nc4ccccc4)c3)nc(N3CCN[C@@H](C(C)C)C3)c12` [Example 224, {4-[4-((S)-3-Isopropyl-piperazin-1-yl)-5-methoxy-pyrido[3,4-d]pyrimidin-2-yl]-pyridin-2-yl}-phenyl-amine], the IC50 was less than 100 nM.

With `COc1cncc2nc(-c3ccnc(Nc4ccccc4)c3)nc(N3CCN[C@@H](CCO)C3)c12` [Example 225, 2-{(S)-4-[5-Methoxy-2-(2-phenylamino-pyridin-4-yl)-pyrido[3,4-d]pyrimidin-4-yl]-piperazin-2-yl}-ethanol], the half-maximal inhibitory concentration (IC50) fell in the range of 100 to 1000 nM.

Turning to `COc1cncc2nc(-c3ccnc(Nc4ccc(N(C)C)cc4)c3)nc(N[C@@H]3CCNC3)c12` [Example 226, N-{4-[5-Methoxy-4-((R)-pyrrolidin-3-ylamino)-pyrido[3,4-d]pyrimidin-2-yl]-pyridin-2-yl}-N′,N′-dimethyl-benzene-1,4-diamine], the IC50 is less than 100 nM.

For `COc1cncc2nc(-c3ccnc(Nc4cccc(N5CCOCC5)c4)c3)nc(N[C@@H]3CCNC3)c12` [Example 227, {5-Methoxy-2-[2-(3-morpholin-4-yl-phenylamino)-pyridin-4-yl]-pyrido[3,4-d]pyrimidin-4-yl}-(R)-pyrrolidin-3-yl-amine], the IC50 was less than 100 nM.

For the compound `COc1cncc2nc(-c3ccnc(Nc4ccccc4F)c3)nc(N[C@@H]3CCNC3)c12` [Example 228, {2-[2-(2-Fluoro-phenylamino)-pyridin-4-yl]-5-methoxy-pyrido[3,4-d]pyrimidin-4-yl}-(R)-pyrrolidin-3-yl-amine], the IC50 is less than 100 nM.

On to `COc1cncc2nc(-c3ccnc(Nc4ccc(N5CCOCC5)cc4)c3)nc(N[C@@H]3CCNC3)c12` [Example 229, {5-Methoxy-2-[2-(4-morpholin-4-yl-phenylamino)-pyridin-4-yl]-pyrido[3,4-d]pyrimidin-4-yl}-(R)-pyrrolidin-3-yl-amine], for which the IC50 is less than 100 nM.

As for `COc1cncc2nc(-c3ccnc(Nc4ccc(F)cc4)c3)nc(N[C@@H]3CCNC3)c12` [Example 230, {2-[2-(4-Fluoro-phenyl-amino)-pyridin-4-yl]-5-methoxy-pyrido[3,4-d]pyrimidin-4-yl}-(R)-pyrrolidin-3-yl-amine], the IC50 was less than 100 nM.

`COc1cncc2nc(-c3ccnc(Nc4ccccc4)c3)nc(N3CCNC(C(F)(F)F)C3)c12` (stereo not drawn) [Example 231, {4-[5-Methoxy-4-(3-trifluoromethyl-piperazin-1-yl)-pyrido[3,4-d]pyrimidin-2-yl]-pyridin-2-yl}-phenyl-amine]: the IC50 was 10000 to 40000 nM.

As for `COc1cncc2nc(-c3ccnc(Nc4ccccc4)c3)nc(N3CCN[C@@H](CC#N)C3)c12` [Example 232, {(S)-4-[5-Methoxy-2-(2-phenylamino-pyridin-4-yl)-pyrido[3,4-d]pyrimidin-4-yl]-piperazin-2-yl}-acetonitrile], the IC50 lay within 100 to 1000 nM.

In the case of `COc1cncc2nc(-c3ccnc(Nc4ccccc4)c3)nc(N3CCN[C@@H](CF)C3)c12` [Example 233, {4-[4-((R)-3-Fluoromethyl-piperazin-1-yl)-5-methoxy-pyrido[3,4-d]pyrimidin-2-yl]-pyridin-2-yl}-phenyl-amine], the IC50 is 100 to 1000 nM.

On to `COc1cncc2nc(-c3ccnc(NC(=O)C4CC4)c3)nc(N3CCC(O)CC3)c12` [Example 234, Cyclo-propane-carboxylic acid {4-[4-(4-hydroxy-piperidin-1-yl)-5-methoxy-pyrido[3,4-d]pyrimidin-2-yl]-pyridin-2-yl}-amide], for which the concentration for half-maximal inhibition (IC50) is 100 to 1000 nM.
